Here are results for 32 compounds from patent US20060167269A1, “Compounds and methods for the inhibition of compounds cruzi” (priority 2001, published 2006).

One data set relates to C. albicans. As to the kind of experiment: Candida broth dilution assay, C. albicans. Type of data set: cell-based. The note with it: 80% growth inhibition, 24 h. The procedure: (§1) The compound JJ119 was tested for anti-Candida activity in a standard assay, as described below, against a number of strains of fungus. The assay compared inhibition (the effective dose causing 80% growth inhibition of the fungus) of several strains of Candida spp. using Fluconazole and compound JJ 119 (R^3 is CH3, all other variable substituents are H) of the present invention (see Table I, above).
(§2) The Candida assay followed the “Reference method for broth dilution antifungal susceptibility testing of yeasts; approved standard”, NCCLS, June, 1997. The procedure was modified to a 96 well format (as described in Modifications section 3.8). The methodology employed deviated from the approved method by reading results at 24 h rather than 48 h (since cultures of the ATCC strains were generally dense by 24 h).
(§3) In general, Candida were inoculated at a density of 2×10^3/ml in RPMI based medium in the presence of drugs at the following concentrations: 50 uM, 10 uM, 2 uM, 0.4 uM, and 0 uM. Cells were incubated at 34° C. for 24 hr and growth inhibition was scored visually for turbidity. All drugs were diluted in DMSO (except fluconazole which was diluted in water). Top concentration of DMSO in the cultures was 0.25%; DMSO alone at 0.5% was not inhibitory to C. albicans.
Background: Dilution methods test growth across graded concentrations, often in twofold steps.

The next data set has as its system C. glabrata. As to the kind of experiment: Candida broth dilution assay, C. glabrata. The class given is cell-based. The settings on record: 80% growth inhibition, 24 h. The procedure: as §1, §2, §3
Data set [1] relates to T. cruzi (Tulahuen strain). Kind of data set: T. cruzi growth on monolayers of mouse 3T3 fibroblasts. The class given is cell-based, Trypanosoma cruzi. The procedure:
(§4) Compounds which appear in Table 1, below were tested […] using the Tulahuen strain of T. cruzi. See Buckner, et al., Antimicrobial Agents and Chemotherapy, 40, 2592-2597 (1996). In this assay, trypomastigotes were grown on monolayers of mouse 3T3 fibroblasts as previously described by Van Voorhis, et al., J. Exp. Med. 169: 641-652 (1989). […] The assay also tested for inhibition of fibroblast growth (an indication of potential toxicity). In virtually all instances, the compounds were non-toxic in the assay. In Table 1, if a substituent is left blank, such a substituent is defined as a hydrogen. [drawing 5]

The subject of another data set is mouse 3T3 fibroblasts. As to the kind of experiment: inhibition of fibroblast growth (indication of potential toxicity). The settings on record: inhibition of 3T3 fibroblast growth. Type of data set: cell-based. The procedure: as §4
Data set [2] deals with T. cruzi trypomastigotes (Tulahuen). As to the kind of experiment: anti-T. cruzi activity in infected mice. The class given is in vivo, mouse. The procedure: FIGS. 3A and B represent mouse data for compound JJ121. FIG. 3A represents Parasite levels and FIG. 3B represents Survival for treated and control mice. Mice were dosed orally at 50 mg/kg twice daily on days 1-10. They were infected with T. cruzi trypomastigotes (Tulahuen) 2×10^3 SQ at day 0. Parasitemia was quantified microscopically on a small drop of tail blood at 400×.
Despite this apparent stability, however, the results for anti-T. cruzi activity in infected mice is much better for JJ121 than for JJ37. […] All mice receiving JJ121 survive past 100 days, whereas the vehicle mice all die by day 20.

A short description of data set [3]: incubation in murine serum (ester hydrolysis). The class given is in vitro ADME, mouse. The settings on record: 30 minutes of incubation. From the text:
The blood serum esterase levels of mice is very high, and it was thought that eliminating the ester group would increase the bioavailability of the aminobiphenyl over the ester.

For a further data set, the system named is C. krusei. Kind of data set: Candida broth dilution assay, C. krusei. The note with it: 80% growth inhibition, 24 h. Type of data set: cell-based. The procedure:
as §1, §2, §3

For another data set, the system named is C. tropicalis. Kind of data set: Candida broth dilution assay, C. tropicalis. The class given is cell-based. The note with it: 80% growth inhibition, 24 h. On the procedure:
as §1, §2, §3

The test system of the next data set is Candida spp. As to the kind of experiment: Candida broth dilution assay. The class given is cell-based. The procedure:
as §1, §2, §3

Another data set has as its system C. parapsilosis. As to the kind of experiment: Candida broth dilution assay, C. parapsilosis. The class given is cell-based. The settings on record: 80% growth inhibition, 24 h. The procedure: as §1, §2, §3
The mark [4] stands for this setting: read-out: activity against T. cruzi.
[5] abbreviates: drug concentration giving 50% inhibition of T. cruzi growth on 3T3 fibroblasts, read-out: EC50 T. cruzi.

Several values for one entry are separate records, joined by “and”; a condition that tells them apart may be missing. Equal values may be shown once. Read-outs that look alike come from different tables or passages of the source.

As to `OC(Cn1cncn1)(Cn1cncn1)c1ccc(F)cc1F` [Fluconazole], the ED80 in the data set on C. albicans (C. albicans strain 1) is 6530 nM; with C. glabrata (C. glabrata strain 1), 104.5 μM and (32) μg/ml; with C. glabrata (C. glabrata strain 2), 6.528 μM and (2) μg/ml; in the data set on C. glabrata (C. glabrata strain 3), 208.9 μM and (64) μg/ml.
Consider `COC(=O)c1ccc(NCc2cncn2Cc2ccc(C#N)cc2)cc1-c1ccccc1` [JJ20], for which the values for the EC50 (in data set [1] (setting [4]); with mouse 3T3 fibroblasts) were 40 nM and greater than 10000 nM, respectively.
For the compound `COC(=O)c1ccc(NCc2cncn2Cc2ccccc2)cc1-c1ccccc1` [JJ21], the figures for the EC50 (in [1] (setting [5]); with mouse 3T3 fibroblasts) were 80 nM and greater than 10000 nM, respectively.
Regarding `N#Cc1ccc(Cn2cncc2CNc2ccc(C(=O)O)c(-c3ccccc3)c2)cc1` [JJ28], the EC50 in [1] (setting [4]) was 1000 nM; with mouse 3T3 fibroblasts, greater than 10000 nM.
For the compound `COC(=O)c1ccc(NCc2cncn2Cc2ccc(-c3ccccc3)cc2)cc1-c1ccccc1` [JJ37], the EC50 in [1] (read-out: activity against T. cruzi amastigotes) is 0.5 nM; in the data set with mouse 3T3 fibroblasts, greater than 10000 nM. In addition, the “activity in mouse models” value in [2] (infected mice) is “shows activity in mouse models, but much less than that of JJ121”. Moreover, the “species found after incubation in murine serum” value in data set [3] was “the ester is the only species”.
As for `COC(=O)c1ccc(NCc2cncn2Cc2ccc([N+](=O)[O-])cc2)cc1-c1ccccc1` [JJ51, p-NO2-imid-BP-COOMe], the EC50 in [1] (setting [5]) is 100 nM; with mouse 3T3 fibroblasts, greater than 10000 nM.
With `COC(=O)c1ccc(NCc2cncn2Cc2ccc(C)cc2)cc1-c1ccccc1` [JJ52, p-CH3-imid-BP-COOMe], the EC50 in data set [1] (setting [5]) is 5 nM; in the data set with mouse 3T3 fibroblasts it was greater than 10000 nM.
Turning to `COC(=O)c1ccc(NCc2cncn2Cc2ccc(Cl)cc2)cc1-c1ccccc1` [JJ53, p-Cl-imid-BP-COOMe], the EC50 was 5 nM in data set [1] (setting [5]) and greater than 10000 nM in the data set with mouse 3T3 fibroblasts.
With `COC(=O)c1ccc(NCc2cncn2Cc2ccc(Br)cc2)cc1-c1ccccc1` [JJ57, p-Br-imid-BP-COOMe], the values for the EC50 (in data set [1] (setting [5]); with mouse 3T3 fibroblasts) were 20 nM and greater than 10000 nM, respectively.
In the case of `COC(=O)c1ccc(NCc2cncn2Cc2ccc(N)cc2)cc1-c1ccccc1` [JJ58, p-NH2-imid-BP-COOMe], the EC50 in data set [1] (setting [5]) was 250 nM; in the data set with mouse 3T3 fibroblasts, greater than 10000 nM.
In the case of `N#Cc1ccc(Cn2cncc2CNc2cccc(-c3ccccc3)c2)cc1` [JJ73], the EC50 in [1] (setting [5]) stood at 50 nM.
`COC(=O)c1ccc(NCc2cncn2Cc2cccc([N+](=O)[O-])c2)cc1-c1ccccc1` [JJ81, m-NO2-imid-BP-COOMe]: the EC50 in data set [1] (setting [5]) was 30 nM; in the data set on mouse 3T3 fibroblasts, greater than 10000 nM.
For `COC(=O)c1ccc(NCc2cncn2Cc2cccc(C)c2)cc1-c1ccccc1` [JJ82, m-CH3-imid-BP-COOMe], in that order: 20 nM and greater than 10000 nM.
For the compound `COC(=O)c1ccc(NCc2cncn2Cc2cccc(N)c2)cc1-c1ccccc1` [JJ83, m-NH2-imid-BP-COOMe], the results for the EC50 (in data set [1] (setting [5]); in the data set with mouse 3T3 fibroblasts) were 130 nM and greater than 10000 nM, respectively.
For `COC(=O)c1ccc(NCc2cncn2Cc2cccc(Cl)c2)cc1-c1ccccc1` [JJ84, m-Cl-imid-BP-COOMe], the EC50 in data set [1] (setting [5]) was 20 nM; in the data set on mouse 3T3 fibroblasts, greater than 10000 nM.
On to `COC(=O)c1ccc(NCc2cncn2Cc2cccc(Br)c2)cc1-c1ccccc1` [JJ85, m-Br-imid-BP-COOMe], for which the EC50 was 20 nM in [1] (setting [5]) and greater than 10000 nM with mouse 3T3 fibroblasts.
For `COC(=O)c1ccc(NCc2cncn2Cc2cccc(C#N)c2)cc1-c1ccccc1` [JJ97, m-CN-imid-BP-COOMe], in that order: 100 nM and greater than 10000 nM.
Turning to `COC(=O)c1ccc(NCc2cncn2Cc2ccccc2C)cc1-c1ccccc1` [JJ101, o-CH3-imid-BP-COOMe], in data set [1] (setting [5]), the EC50 came to 1000 nM.
On to `COC(=O)c1ccc(NCc2cncn2Cc2ccccc2Br)cc1-c1ccccc1` [JJ102, o-Br-imid-BP-COOMe], for which, in [1] (setting [5]), the EC50 worked out at 100 nM.
As to `COC(=O)c1ccc(NCc2cncn2Cc2ccccc2C#N)cc1-c1ccccc1` [JJ103, o-CN-imid-BP-COOMe], the EC50 was 200 nM in data set [1] (setting [5]) and greater than 10000 nM in the data set on mouse 3T3 fibroblasts.
Consider `COC(=O)c1ccc(NCc2cncn2Cc2cccc(C(F)(F)F)c2)cc1-c1ccccc1` [JJ104], for which the EC50 in [1] (setting [5]) was 40 nM; with mouse 3T3 fibroblasts, greater than 10000 nM.
For `COC(=O)c1ccc(NCc2cncn2Cc2ccccc2N)cc1-c1ccccc1` [JJ105, o-NH2-imid-BP-COOMe], in that order: 5 nM and greater than 10000 nM.
Regarding `COC(=O)c1ccc(NCc2cncn2Cc2ccccc2Cl)cc1-c1ccccc1` [JJ117], the EC50 with mouse 3T3 fibroblasts is greater than 10000 nM.
`O=[N+]([O-])c1ccc(Cn2cncc2CNc2cccc(-c3ccccc3)c2)cc1` [JJ118, p-NO2-imid-BP]: the EC50 in data set [1] (setting [5]) was 100 nM.
In the case of `Cc1ccc(Cn2cncc2CNc2cccc(-c3ccccc3)c2)cc1` [JJ119, p-CH3-imid-BP], in [1] (setting [5]), the EC50 amounted to 100 nM. Also, the ED80 in the data set with C. albicans (C. albicans strain 1) is 12500 nM; in the data set on C. albicans (C. albicans strain 2), 12500 nM; with C. albicans (C. albicans strain 3) it was 6250 nM; in the data set on C. krusei (C. krusei strain 1), 25000 nM; in the data set with C. krusei (C. krusei strain 2) it was 50000 nM; with C. krusei (C. krusei strain 3), 25000 nM. The ED80 was greater than 100000 nM in the data set with C. tropicalis (C. tropicalis strain 1); greater than 100000 nM with C. tropicalis (C. tropicalis strain 2 (first line so named, r25)); greater than 100000 nM in the data set with C. tropicalis (C. tropicalis strain 2 (second line so named, r27)); 12.5 µM in the data set on C. glabrata (C. glabrata strain 1); 6.25 µM with C. glabrata (C. glabrata strain 2); 25 µM in the data set on C. glabrata (C. glabrata strain 3). Besides, the ED80 was 100000 nM and 50000 nM with C. parapsilosis (C. parapsilosis strain 1); 25000 nM and 12500 nM in the data set on C. parapsilosis (C. parapsilosis strain 2). Also, in the data set on Candida spp., the anti-Candida activity result is listed as “favorable anti-Candida activity”.
On to `Clc1ccc(Cn2cncc2CNc2cccc(-c3ccccc3)c2)cc1` [JJ120, p-Cl-imid-BP], for which the EC50 in data set [1] (setting [5]) was 80 nM. Besides, the anti-Candida activity entry in the data set with Candida spp. is recorded as “exhibited activity”.
As usually defined, the IC50 is the concentration that gives 50% inhibition. Low readings indicate higher potency, high ones lower potency. Regarding `c1ccc(-c2ccc(Cn3cncc3CNc3cccc(-c4ccccc4)c3)cc2)cc1` [JJ121, p-Ph-imid-BP], the “reduced activity compared with JJ37” value in data set [1] was 20 fold. Besides, in data set [1] (T. cruzi), the midpoint of inhibition, the IC50, lay at 10 nM. Besides, the EC50 in data set [1] (setting [5]) was 10 nM. The compound further registered a survival in [2] (mice, oral 50 mg/kg twice daily on days 1-10, vehicle mice all die by day 20) greater than 100 days. The “parasite level in mouse blood” value in data set [2] (mice, oral 50 mg/kg twice daily, within 45 days) is listed as “dramatic suppression of parasite from mouse blood”.
For the compound `CCOC(=O)c1ccc(NCc2cncn2Cc2ccc(-c3ccccc3)cc2)cc1-c1ccccc1` [JJ128], the EC50 in data set [1] (setting [5]) is 10 nM; with mouse 3T3 fibroblasts, greater than 10000 nM.
For `CC(C)OC(=O)c1ccc(NCc2cncn2Cc2ccc(-c3ccccc3)cc2)cc1-c1ccccc1` [JJ129] the same measures were 50 nM and greater than 10000 nM.
Turning to `O=C(OC1CCCCC1)c1ccc(NCc2cncn2Cc2ccc(-c3ccccc3)cc2)cc1-c1ccccc1` [JJ130], the figures for the EC50 (in data set [1] (setting [5]); in the data set with mouse 3T3 fibroblasts) were 10 nM and greater than 10000 nM, respectively.
For `c1ccc(-c2ccc(Cn3cncc3CNc3ccc(-c4cc5ccccc5o4)c(-c4ccccc4)c3)cc2)cc1` [JJ138], the EC50 in data set [1] (setting [5]) is 100 nM; with mouse 3T3 fibroblasts, greater than 10000 nM.
As to `c1ccc(-c2ccc(Cn3cncc3CNc3ccc(-c4noc5ccccc45)c(-c4ccccc4)c3)cc2)cc1` [JJ141], the EC50 in [1] (setting [5]) is 10 nM; with mouse 3T3 fibroblasts, greater than 10000 nM.
